Results as given in patent publication US6410684B1, “Serine protease inhibitors” (Akzo Nobel N.V., priority 1996, dated 2002).

Biological target: T1, Thrombin (Factor IIa) (Homo sapiens, UniProt P00734)
T1 construct: purchased Centraal Laboratorium voor Bloedtransfusie, Amsterdam, The Netherlands
Assay: Anti-thrombin assay (hydrolysis of chromogenic substrate S-2238)
Assay type: biochemical
Conditions: chromogenic substrate S-2238, TNP buffer, 37° C., absorbance at 405 nm
Method: Thrombin (Factor IIa) is a factor in the coagulation cascade. The anti-thrombin activity of compounds of the present invention was assessed by measuring spectrophotometrically the rate of hydrolysis of the chromogenic substrate s-2238 exterted by thrombin. This assay for anti-thrombin activity in a buffer system was used to assess the IC50-value of a test compound.
Test medium: Tromethamine-NaCl-polyethylene glycol 6000 (TNP) buffer. Reference compound: 12581 (Kabi) Vehicle: TNP buffer. Solubilisation can be assisted with dimethylsulphoxide, methanol, ethanol, acetonitrile or tert-butyl alcohol which are without adverse effects in concentrations up to 2.5% in the final reaction mixture.
Reagents*: 1. Tromethamine-NaCl (TN) buffer. Composition of the buffer: Tromethamine (Tris) 6.057 g (50 mmol), NaCl 5.844 g (100 mmol), water to 1 l. The pH of the solution is adjusted to 7.4 at 37° C. with HCl (10 mmol·l^−1). 2. TNP buffer: Polyethylene glycol 6000 is dissolved in TN buffer to give a concentration of 3 g·l^−1. 3. S-2238 solution: One vial S-2238 (25 mg; Kabi Diagnostica, Sweden) is dissolved in 20 ml TN buffer to give a concentration of 1.25 mg·ml^−1 (2 mmol·l^−1). 4. Thrombin solution: Human thrombin (16 000 nKat·vial^−1; Centraal Laboratorium voor Bloedtransfusie, Amsterdam, The Netherlands) is dissolved in TNP buffer to give a stock solution of 835 nKat·ml^−1. Immediately before use this solution is diluted with TNP buffer to give a concentration of 3.34 nKat·ml^−1.
The test and reference compounds are dissolved in Milli-Q water to give stock concentrations of 10^−2 mol·l^−1. Each concentration is stepwise diluted with the vehicle to give concentrations of 10^−3, 10^−4 and 10^−5 mol·l^−1. The dilutions, including the stock solution, are used in the assay (final concentrations in the reaction mixture: 3·10^−3; 10^−3; 3·10^−4; 10^−4; 3·10^−5; 10^−5; 3·10^−6; and 10^−6 mol·l^−1, respectively).
At room temperature 0.075 ml and 0.025 ml test compound or reference compound solutions or vehicle are alternately pipetted into the wells of a microtiter plate and these solutions are diluted with 0.115 ml and 0.0165 ml TNP buffer, respectively. An aliquot of 0.030 ml S-2238 solution is added to each well and the plate is pre-heated and pre-incubated with shaking in an incubator (Amersham) for 10 min. at 37° C. Following pre-incubation the hydrolysis of S-2238 is started by addition of 0.030 ml thrombin solution to each well. The plate is incubated (with shaking for 30 s) at 37° C. Starting after 1 min of incubation, the absorbance of each sample at 405 nm is measured every 2 min. for a period of 90 min. using a kinetic microtiter plate reader (Twinreader plus, Flow Laboratories).
All data are collected in an IBM personal computer using LOTUS-MEASURE. For each compound concentration (expressed in mol·l^−1 reaction mixture) and for the blank the absorbance is plotted versus the reaction time in min.
Evaluation of responses: For each final concentration the maximum absorbance was calculated from the assay plot. The IC50-value (final concentration, expressed in μmol·l^−1, causing 50% inhibition of the maximum absorbance of the blank) was calculated using the logit transformation analysis according to Hafner et al. (Arzneim.-Forsch./Drug Res. 1977; 27(II): 1871-3).

NCC#CCC(NC(=O)C1CCCN1C(=O)C(CC1CCCCC1)NCC(=O)O)C(=O)c1nccs1 (stereo not drawn) [Example 1]
IC50: 0.56 µM

CNC(CC1CCCCC1)C(=O)N1CCCC1C(=O)NC(CC#CCN)C(=O)C(=O)O [Example 3, N-Me-D-Cha-Pro-LysininylΨ[COCO]—OH]
IC50: 4.3 µM

NCC#CCC(NC(=O)C1CCCN1C(=O)C(Cc1ccccc1)NCC(=O)O)C(=O)C(=O)O [Example 11, HOOC—CH2-D-Phe-Pro-LysininylΨ[COCO]—OH]
IC50: 5 µM

NCC#CCC(NC(=O)C1CCCN1C(=O)C(CC1CCCCC1)NCC(=O)O)C(=O)C(=O)N1CCC1 (stereo not drawn) [Example 15]
IC50: 0.7 µM

NCC#CCC(NC(=O)C1CCCN1C(=O)C1NCCC2CCCCC21)C(=O)c1nccs1 (stereo not drawn) [Example 27]
IC50: 4.64 µM

NCCCCC(NC(=O)[C@@H]1CCCN1C(=O)[C@@H](Cc1ccc(Cl)cc1)NCC(=O)O)C(=O)c1nccs1 (stereo partly drawn) [Example 30, HOOC—CH2-D-p-Cl-Phe-Pro-Lysininyl-(2-thiazolyl)]
IC50: 5.1 µM
